No end group written: not given here.
What was measured:
Na/K-ATPase α1 = target: T1, Na/K-ATPase α1 (Sus scrofa, UniProt P05024); experiment: tyrosine 260 phosphorylation of Na/K-ATPase, Western blot; assay type: cell-based; details: LLC-PK1 cells, 100 nM ouabain, FIG. 4C
T1 construct: in normal LLC-PK1 cells, tyrosine 260 of full length Na/K-ATPase was phosphorylated; endogenous in cells; host or cells: LLC-PK1
Experimental: FIGS. 4A-4C include a schematic diagram and images relating to the phosphorylation of Y260 in CD2, FIG. 4A is a schematic diagram showing CD2 sequence from Na/K-ATPase α1 subunit with the tentative Src SH2 domain binding region surrounding Y260 marked in a box (SEQ ID NO: 10). FIG. 4B is an image showing the results of an experiment where five hundred μg of total cell lysate was immunoprecipitated with 10 μg anti-Src antibody and immunoprecipitates were subjected to Western blot analysis of tyrosine 260 phosphorylation using an anti-phosphotyrosine 260 Na/K-ATPase α1 antibody, and where the same membrane was stripped and probed for YFP. FIG. 4C includes images showing the results of an experiment where LLC-PK1 cells were grown up to 100% confluence and then serum starved overnight and treated with 100 nM ouabain for the indicated times and then western blotted by probing for pY260 α1 Na/K-ATPase and a 1 Na/K-ATPase, […] Src and total Src.
In view of the foregoing findings, experiments were then undertaken to develop a highly specific peptide antagonist for disrupting the CD2/SH2 interaction in order to inhibit the cardiotonic steroid-mediated signaling, in cells. […] As depicted in FIG. 4B, CD2 was capable of being phosphorylated when it was expressed in cells.

[1] = reconstituted in vitro system; previously demonstrated (PCT/US2011/021130); cited from earlier work

| Molecule | phosphorylation of tyrosine 260 of full length Na/K-ATPase (Na/K-ATPase α1) | ouabain antagonism [1] |
| --- | --- | --- |
| C[C@@H]1O[C@@H](O[C@H]2C[C@@H](O)[C@]3(CO)[C@H]4[C@H](O)C[C@]5(C)[C@@H](C6=CC(=O)OC6)CC[C@]5(O)[C@@H]4CC[C@]3(O)C2)[C@H](O)[C@H](O)[C@H]1O [ouabain] | increased the phosphorylation in a time-dependent manner | – |
| CD2C2: peptide derived from CD2, non-phosphorylated; SEQ ID NO: 1 in PCT/US2011/021130 (STNCVEGTARGIVVYTGD; not fully specified (residue 15); listed as Homo sapiens) | – | effective ouabain antagonist |

Reference: US10781431B2, “Cardiotonic steroid antagonists and related methods” (MARSHALL UNIVERSITY RESEARCH CORPORTION, priority 2014, dated 2020)
